Laboratory results published in US9801889B2, “Bicyclic heterocycles as FGFR4 inhibitors” (Incyte Corporation, priority 2015, dated 2017).

What was measured:
[1] = molecular target: FGFR3 (Homo sapiens (Human), UniProt P22607); test: FGFR Enzymatic Assay (FRET peptide phosphorylation), FGFR3; details: IC50 ratio showing FGFR4 selectivity
Source text: (§1) The enzymes were purchased from Millipore or Invitrogen.
(§2) GraphPad prism3 was used to analyze the data. The IC50 values were derived by fitting the data to the equation for a sigmoidal dose-response with a variable slope. Y=Bottom+(Top-Bottom)/(1+10^((LogIC50-X)*HillSlope)) where X is the logarithm of concentration and Y is the response.

[2] = molecular target: FGFR2 (Homo sapiens (Human), UniProt P21802); test: FGFR Enzymatic Assay (FRET peptide phosphorylation), FGFR2; details: IC50 ratio showing FGFR4 selectivity
FGFR2, sequence (P21802 22-821): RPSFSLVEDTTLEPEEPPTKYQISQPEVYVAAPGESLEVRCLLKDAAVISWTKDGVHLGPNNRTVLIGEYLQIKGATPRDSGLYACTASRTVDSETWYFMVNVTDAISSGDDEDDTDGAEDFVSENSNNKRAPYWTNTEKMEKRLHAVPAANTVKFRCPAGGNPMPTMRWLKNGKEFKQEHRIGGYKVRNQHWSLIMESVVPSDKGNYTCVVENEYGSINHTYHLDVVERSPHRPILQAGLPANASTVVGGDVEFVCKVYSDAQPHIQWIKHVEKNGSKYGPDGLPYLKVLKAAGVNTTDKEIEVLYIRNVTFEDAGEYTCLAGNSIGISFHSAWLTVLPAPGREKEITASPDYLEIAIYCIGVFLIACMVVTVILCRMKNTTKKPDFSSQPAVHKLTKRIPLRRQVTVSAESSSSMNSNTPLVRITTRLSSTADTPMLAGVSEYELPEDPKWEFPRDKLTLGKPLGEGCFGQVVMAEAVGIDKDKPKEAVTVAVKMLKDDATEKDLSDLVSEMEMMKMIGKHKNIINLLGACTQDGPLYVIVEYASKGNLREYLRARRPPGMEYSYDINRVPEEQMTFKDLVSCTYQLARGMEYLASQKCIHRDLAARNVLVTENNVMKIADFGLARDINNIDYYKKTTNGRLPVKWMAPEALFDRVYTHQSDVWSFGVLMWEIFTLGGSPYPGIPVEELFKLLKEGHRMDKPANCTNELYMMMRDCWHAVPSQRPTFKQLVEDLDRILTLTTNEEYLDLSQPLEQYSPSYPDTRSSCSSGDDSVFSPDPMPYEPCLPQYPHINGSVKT
Source text: as §1, §2

[3] = molecular target: FGFR1 (Homo sapiens (Human), UniProt P11362); test: FGFR Enzymatic Assay (FRET peptide phosphorylation), FGFR1; details: IC50 ratio showing FGFR4 selectivity
FGFR1, sequence (P11362 22-822): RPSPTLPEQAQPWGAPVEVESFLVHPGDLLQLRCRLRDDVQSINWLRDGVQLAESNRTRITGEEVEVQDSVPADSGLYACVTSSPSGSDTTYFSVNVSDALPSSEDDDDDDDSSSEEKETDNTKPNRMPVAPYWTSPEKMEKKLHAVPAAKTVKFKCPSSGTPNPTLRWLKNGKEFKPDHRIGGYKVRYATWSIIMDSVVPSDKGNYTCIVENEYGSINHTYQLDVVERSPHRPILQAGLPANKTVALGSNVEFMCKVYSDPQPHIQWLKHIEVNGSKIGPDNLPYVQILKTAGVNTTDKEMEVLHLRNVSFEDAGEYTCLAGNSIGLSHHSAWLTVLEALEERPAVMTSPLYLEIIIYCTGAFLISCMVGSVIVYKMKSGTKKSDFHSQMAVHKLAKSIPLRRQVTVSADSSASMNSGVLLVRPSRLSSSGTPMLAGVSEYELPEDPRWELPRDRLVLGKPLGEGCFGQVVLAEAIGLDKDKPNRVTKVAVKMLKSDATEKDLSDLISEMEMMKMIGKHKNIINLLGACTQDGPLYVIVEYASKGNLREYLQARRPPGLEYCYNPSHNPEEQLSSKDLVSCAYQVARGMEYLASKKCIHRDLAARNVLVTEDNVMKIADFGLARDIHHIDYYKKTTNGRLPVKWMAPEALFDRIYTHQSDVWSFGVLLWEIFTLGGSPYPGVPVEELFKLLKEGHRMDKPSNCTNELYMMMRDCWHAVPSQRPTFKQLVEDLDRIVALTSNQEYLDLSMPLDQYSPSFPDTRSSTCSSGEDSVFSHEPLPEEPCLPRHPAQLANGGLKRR
Source text: as §1, §2

[4] = molecular target: FGFR4 (Homo sapiens (Human), UniProt P22455); test: FGFR Enzymatic Assay (FRET peptide phosphorylation), FGFR4
FGFR4, sequence (P22455 22-802): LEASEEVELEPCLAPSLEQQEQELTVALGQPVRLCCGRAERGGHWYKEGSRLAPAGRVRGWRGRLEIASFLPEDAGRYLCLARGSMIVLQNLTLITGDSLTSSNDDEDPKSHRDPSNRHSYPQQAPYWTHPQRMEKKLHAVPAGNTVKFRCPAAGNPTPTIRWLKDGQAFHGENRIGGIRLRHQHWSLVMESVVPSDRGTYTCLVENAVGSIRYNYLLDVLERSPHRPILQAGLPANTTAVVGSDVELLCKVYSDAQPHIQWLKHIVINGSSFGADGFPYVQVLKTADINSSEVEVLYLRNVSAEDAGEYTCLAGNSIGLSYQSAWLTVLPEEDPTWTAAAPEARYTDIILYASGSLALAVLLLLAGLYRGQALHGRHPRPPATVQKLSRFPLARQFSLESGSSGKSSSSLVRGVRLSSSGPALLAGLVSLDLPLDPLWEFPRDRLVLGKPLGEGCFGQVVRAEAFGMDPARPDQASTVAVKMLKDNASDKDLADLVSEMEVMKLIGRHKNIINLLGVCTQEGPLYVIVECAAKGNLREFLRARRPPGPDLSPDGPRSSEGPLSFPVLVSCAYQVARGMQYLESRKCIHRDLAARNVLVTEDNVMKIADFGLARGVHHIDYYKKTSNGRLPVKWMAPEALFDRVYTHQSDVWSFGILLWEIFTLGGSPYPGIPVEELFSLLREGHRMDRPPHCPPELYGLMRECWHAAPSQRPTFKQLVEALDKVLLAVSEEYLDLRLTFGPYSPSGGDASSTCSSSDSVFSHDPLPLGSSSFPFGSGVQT
Source text: as §1, §2

[5] = pre-incubated for 5 to 10 minutes

FGFR3, sequence (P22607 23-806): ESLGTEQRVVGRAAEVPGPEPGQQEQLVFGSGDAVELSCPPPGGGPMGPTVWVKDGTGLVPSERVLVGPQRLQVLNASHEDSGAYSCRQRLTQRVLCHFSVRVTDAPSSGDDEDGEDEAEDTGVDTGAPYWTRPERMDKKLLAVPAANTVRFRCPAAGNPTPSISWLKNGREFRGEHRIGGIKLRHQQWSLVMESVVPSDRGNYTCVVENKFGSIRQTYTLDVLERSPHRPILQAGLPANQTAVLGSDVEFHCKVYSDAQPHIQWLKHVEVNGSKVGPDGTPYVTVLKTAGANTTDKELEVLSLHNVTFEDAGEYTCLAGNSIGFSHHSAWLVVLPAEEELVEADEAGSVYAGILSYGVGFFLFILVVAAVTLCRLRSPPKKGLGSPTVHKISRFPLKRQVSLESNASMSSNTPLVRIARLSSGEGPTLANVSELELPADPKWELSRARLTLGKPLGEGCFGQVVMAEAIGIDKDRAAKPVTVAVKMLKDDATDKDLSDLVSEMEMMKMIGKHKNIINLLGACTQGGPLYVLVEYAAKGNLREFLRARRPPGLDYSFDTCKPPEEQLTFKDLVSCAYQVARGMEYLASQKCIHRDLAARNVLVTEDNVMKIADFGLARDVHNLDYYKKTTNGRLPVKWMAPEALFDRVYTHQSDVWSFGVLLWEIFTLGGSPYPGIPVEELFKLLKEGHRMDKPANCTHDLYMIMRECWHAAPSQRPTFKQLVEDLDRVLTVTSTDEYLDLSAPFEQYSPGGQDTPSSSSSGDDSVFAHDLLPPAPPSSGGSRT

C=CC(=O)Nc1cnn(CC(=O)NC)c1-c1cc2c(cn1)CN(c1c(F)c(OC)cc(OC)c1F)C(=O)C21CC1 [Example 20, N-(5-(2′-(2,6-difluoro-3,5-dimethoxyphenyl)-3′-oxo-2′,3′-dihydro-1′H-spiro[cyclopropane-1,4′-[2,7]naphthyridine]-6′-yl)-1-(2-(methylamino)-2-oxoethyl)-1H-pyrazol-4-yl)acrylamide]
FGFR3/FGFR4 ([1]; pre-incubated for 4 hours): >100 | FGFR2/FGFR4 ([2]; pre-incubated for 4 hours): >100 | FGFR1/FGFR4 ([3]; pre-incubated for 4 hours): >50 | IC50 [4]: 10 to 30 nM

C=CC(=O)Nc1cn(CC(=O)N(C)C)nc1-c1cc2c(cn1)CN(c1c(F)c(OC)cc(OC)c1F)C(=O)C21CC1 [Example 36, N-(3-(2′-(2,6-difluoro-3,5-dimethoxyphenyl)-3′-oxo-2′,3′-dihydro-1′H-spiro[cyclopropane-1,4′-[2,7]naphthyridine]-6′-yl)-1-(2-(dimethylamino)-2-oxoethyl)-1H-pyrazol-4-yl)acrylamide]
FGFR3/FGFR4 ([1]; pre-incubated for 4 hours): >100 | FGFR2/FGFR4 ([2]; pre-incubated for 4 hours): >100 | FGFR1/FGFR4 ([3]; pre-incubated for 4 hours): >100

C=CC(=O)Nc1cc(-c2cc3c(cn2)CN(c2c(F)c(OC)cc(OC)c2F)C(=O)C32CC2)cc(N2CCOCC2)c1 [Example 10, N-{3-[2′-(2,6-difluoro-3,5-dimethoxyphenyl)-3′-oxo-2′,3′-dihydro-1′H-spiro[cyclopropane-1,4′-[2,7]naphthyridin]-6′-yl]-5-morpholin-4-ylphenyl}acrylamide]
FGFR3/FGFR4 [1, 5]: >100 | FGFR3/FGFR4 ([1]; pre-incubated for 4 hours): >100 | FGFR2/FGFR4 [2, 5]: >100 | FGFR2/FGFR4 ([2]; pre-incubated for 4 hours): >100 | FGFR1/FGFR4 [3, 5]: >100 | FGFR1/FGFR4 ([3]; pre-incubated for 4 hours): >100

C=CC(=O)Nc1cnn(CCO)c1-c1cc2c(cn1)CN(c1c(F)c(OC)cc(OC)c1F)C(=O)C21CC1 [Example 17, N-(5-(2′-(2,6-difluoro-3,5-dimethoxyphenyl)-3′-oxo-2′,3′-dihydro-1′H-spiro[cyclopropane-1,4′-[2,7]naphthyridine]-6′-yl)-1-(2-hydroxyethyl)-1H-pyrazol-4-yl)acrylamide]
FGFR3/FGFR4 ([1]; pre-incubated for 4 hours): >100 | FGFR2/FGFR4 ([2]; pre-incubated for 4 hours): >100 | FGFR1/FGFR4 ([3]; pre-incubated for 4 hours): >100

C=CC(=O)Nc1cn[nH]c1-c1cc2c(cn1)CN(c1c(F)c(OC)cc(OC)c1F)C(=O)C21CC1 [Example 14, N-(5-(2′-(2,6-difluoro-3,5-dimethoxyphenyl)-3′-oxo-2′,3′-dihydro-1′H-spiro[cyclopropane-1,4′-[2,7]naphthyridine]-6′-yl)-1H-pyrazol-4-yl)acrylamide]
FGFR3/FGFR4 ([1]; pre-incubated for 4 hours): >100 | FGFR2/FGFR4 ([2]; pre-incubated for 4 hours): >100 | FGFR1/FGFR4 ([3]; pre-incubated for 4 hours): >100

C=CC(=O)Nc1cn(CCOC)nc1-c1cc2c(cn1)CN(c1c(F)c(OC)cc(OC)c1F)C(=O)C21CC1 [Example 32, N-(3-(2′-(2,6-difluoro-3,5-dimethoxyphenyl)-3′-oxo-2′,3′-dihydro-1′H-spiro[cyclopropane-1,4′-[2,7]naphthyridine]-6′-yl)-1-(2-methoxyethyl)-1H-pyrazol-4-yl)acrylamide]
FGFR3/FGFR4 ([1]; pre-incubated for 4 hours): >100 | FGFR2/FGFR4 ([2]; pre-incubated for 4 hours): >100 | FGFR1/FGFR4 ([3]; pre-incubated for 4 hours): >100

C=CC(=O)Nc1cnn(CCOCC)c1-c1cc2c(cn1)CN(c1c(F)c(OC)cc(OC)c1F)C(=O)C21CC1 [Example 16, N-(5-(2′-(2,6-difluoro-3,5-dimethoxyphenyl)-3′-oxo-2′,3′-dihydro-1′H-spiro[cyclopropane-1,4′-[2,7]naphthyridine]-6′-yl)-1-(2-ethoxyethyl)-1H-pyrazol-4-yl)acrylamide]
FGFR3/FGFR4 ([1]; pre-incubated for 4 hours): >100 | FGFR2/FGFR4 ([2]; pre-incubated for 4 hours): >100 | FGFR1/FGFR4 ([3]; pre-incubated for 4 hours): >100

C=CC(=O)Nc1cn(CCOC(F)(F)F)nc1-c1cc2c(cn1)CN(c1c(F)c(OC)cc(OC)c1F)C(=O)C21CC1 [Example 33, N-(3-(2′-(2,6-difluoro-3,5-dimethoxyphenyl)-3′-oxo-2′,3′-dihydro-1′H-spiro[cyclopropane-1,4′-[2,7]naphthyridine]-6′-yl)-1-(2-(trifluoromethoxy)ethyl)-1H-pyrazol-4-yl)acrylamide]
FGFR3/FGFR4 ([1]; pre-incubated for 4 hours): >100 | FGFR2/FGFR4 ([2]; pre-incubated for 4 hours): >100 | FGFR1/FGFR4 ([3]; pre-incubated for 4 hours): >100

C=CC(=O)Nc1cnn(C[C@@H]2CCCO2)c1-c1cc2c(cn1)CN(c1c(F)c(OC)cc(OC)c1F)C(=O)C21CC1 [Example 31, (S)-N-(5-(2′-(2,6-difluoro-3,5-dimethoxyphenyl)-3′-oxo-2′,3′-dihydro-1′H-spiro[cyclopropane-1,4′-[2,7]naphthyridine]-6′-yl)-1-((tetrahydrofuran-2-yl)methyl)-1H-pyrazol-4-yl)acrylamide]
FGFR3/FGFR4 ([1]; pre-incubated for 4 hours): >100 | FGFR2/FGFR4 ([2]; pre-incubated for 4 hours): >100 | FGFR1/FGFR4 ([3]; pre-incubated for 4 hours): >100

C=CC(=O)Nc1cnn(Cc2ccnn2C)c1-c1cc2c(cn1)CN(c1c(F)c(OC)cc(OC)c1F)C(=O)C21CC1 [Example 26, N-(5-(2′-(2,6-difluoro-3,5-dimethoxyphenyl)-3′-oxo-2′,3′-dihydro-1′H-spiro[cyclopropane-1,4′-[2,7]naphthyridine]-6′-yl)-1-((1-methyl-1H-pyrazol-5-yl)methyl)-1H-pyrazol-4-yl)acrylamide]
FGFR3/FGFR4 ([1]; pre-incubated for 4 hours): >100 | FGFR2/FGFR4 ([2]; pre-incubated for 4 hours): >50 | FGFR1/FGFR4 ([3]; pre-incubated for 4 hours): >100

C=CC(=O)Nc1cc(-c2cc3c(cn2)CN(c2c(F)c(OC)cc(OC)c2F)C(=O)C32CC2)ccc1CN1CCOCC1 [Example 12, N-(5-(2′-(2,6-difluoro-3,5-dimethoxyphenyl)-3′-oxo-2′,3′-dihydro-1′H-spiro[cyclopropane-1,4′-[2,7]naphthyridine]-6′-yl)-2-(morpholinomethyl)phenyl)acrylamide]
FGFR3/FGFR4 [1, 5]: >1 | FGFR3/FGFR4 ([1]; pre-incubated for 4 hours): >10 | FGFR2/FGFR4 [2, 5]: >1 | FGFR2/FGFR4 ([2]; pre-incubated for 4 hours): >25 | FGFR1/FGFR4 [3, 5]: >10 | FGFR1/FGFR4 ([3]; pre-incubated for 4 hours): >100
